“Also recorded” adds a separate entry of the source. Read-outs that look alike come from different tables or passages of the source. Peptide text beside a SMILES is read from it. Where only a bound is given, the exact number is not on record here.

The target of experiment [1] is T1, Mushroom tyrosinase (Agaricus bisporus, UniProt C7FF04).
T1 construct: purchased Beijing Solarbio Biotechnology Co., Ltd
Put plainly: Tyrosinase inhibitory activity (L-tyrosine substrate, absorbance at 475 nm). The experiment is classed as biochemical. The method, then: Tyrosinase inhibitory activity was determined in conformity with. With reference to the reagent addition in Table 1, we added phosphate buffer solution (PBS, pH 6.8, 0.1 mol/L), sample solutions and L-tyrosine solution (L-Tyr, 0.5 mg/mL, pH 6.8 in PBS) to each well in a 96-well plate. These were mixed well and incubated at 37 °C for 10 min. Then, 20 μL of mushroom tyrosinase solution (500 U/mL) was added, mixed and reacted at 37 °C for 15 min, and monitored at 475 nm. The tyrosinase inhibition rate (Y) was calculated as follows:(1) Y=(1−A4−A3/A2−A1)×100% where A4 is the absorbance of the reaction well of the sample, A3 is the absorbance value of the sample background well, A2 is the absorption value of the solvent reaction well and A1 is the absorbance of the solvent background well.

Experiment [2] concerns the target T2, tyrosinase (Agaricus bisporus, UniProt C7FF04).
T2 construct: purchased Beijing Solarbio Biotechnology Co., Ltd
Put plainly: Enzyme inhibition kinetic assay (enzyme concentration vs. rate, Lineweaver–Burk plots). As to conditions: for Ki: Inhibition Constant KI (mM), enzyme–inhibitor complex; for Inhibition Constant KIS: enzyme–inhibitor–substrate complex. Type of experiment: biochemical, mushroom. The text has this:
The Lineweaver–Burk double-inverse curve was obtained by taking the reciprocal of the substrate concentration (1/[S]) as the horizontal coordinate and the reciprocal of the initial reaction rate (1/V) as the vertical coordinate to determine the type of inhibition and to calculate the Mie constant (KM) and the maximum reaction rate (Vmax).
To elucidate the mechanism of inhibition of tyrosinase by YYP, kinetic studies were used to investigate the kinetic characterization of the inhibitory response (Figure 6).
The Lineweaver–Burk double-inverse plot of the inhibitory effect of YYP on tyrosinase is illustrated in Figure 6. The 1/V were both fitted linearly to the 1/[S] (R^2 and p-values shown in Table 10) and intersected in the second quadrant of the graph. As the amount of YYP increased, the value of KM increased and the value of Vmax decreased.
The mixed-inhibitory type inhibits tyrosinase via two distinct pathways: competitively forming enzyme–inhibitor (EI) complexes and interrupting enzyme–substrate–inhibitor (ESI) complexes in a noncompetitive manner. The inhibition constant KI or KIS is the dissociation constant for the dissociation of the inhibitor (I) from the EI complexs or the enzyme–inhibitor–substrate (EIS) complexs. Both baicalein and cinnamic acid derivatives are reversible mixed-type inhibitors. […] Summarized in Table 10, based on the slope ratio and intercept ratio of the Lineweaver–Burk curve (with and without the presence of samples), the KI and KIS can be obtained.

Experiment [3] concerns the target Mushroom tyrosinase (Agaricus bisporus) (UniProt C7FF04).
Experiment [4] shares this target. Nature of the experiment: enzyme inhibition kinetics (Lineweaver-Burk); tyrosinase with L-tyrosine as substrate; KI and KIS from the slope ratio and intercept ratio of the Lineweaver-Burk lines with and without YYP; YYP 1 mM.
Experiment [5] shares this target. Put plainly: enzyme inhibition kinetics (Lineweaver-Burk); tyrosinase with L-tyrosine as substrate; KI and KIS from the slope ratio and intercept ratio of the Lineweaver-Burk lines with and without YYP; YYP 2 mM.
For experiment [6] the target is unchanged. Put plainly: enzyme inhibition kinetics (Lineweaver-Burk); tyrosinase with L-tyrosine as substrate; KI and KIS from the slope ratio and intercept ratio of the Lineweaver-Burk lines with and without YYP; YYP 0.5 mM.
The mark [7] stands for this setting: synthetic peptides, read-out: Tyrosinase Inhibitory Activity (IC50).

T1 sequence (C7FF04 1-392 limits assumed): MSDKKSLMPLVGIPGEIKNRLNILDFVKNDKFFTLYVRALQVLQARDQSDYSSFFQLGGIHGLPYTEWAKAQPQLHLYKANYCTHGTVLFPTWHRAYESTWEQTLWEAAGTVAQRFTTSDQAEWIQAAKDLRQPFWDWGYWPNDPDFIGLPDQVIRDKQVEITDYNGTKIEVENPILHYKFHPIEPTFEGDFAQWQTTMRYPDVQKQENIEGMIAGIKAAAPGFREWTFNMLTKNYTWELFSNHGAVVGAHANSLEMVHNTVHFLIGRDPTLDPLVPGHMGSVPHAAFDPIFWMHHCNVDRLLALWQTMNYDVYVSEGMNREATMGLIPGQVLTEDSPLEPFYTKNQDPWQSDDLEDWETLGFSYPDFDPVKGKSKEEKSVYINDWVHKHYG

For `CC(C)[C@H](NC(=O)[C@H](CCCNC(=N)N)NC(=O)[C@@H](N)Cc1ccccc1)C(=O)N[C@@H](CCCCN)C(=O)O` [FRVK, Phe-Arg-Val-Lys] (H-FRVK-OH; N-terminus and C-terminus assumed), in experiment [1] (setting [7]), the IC50 was found to be 5.87 ± 0.068 mM.
The same measure, in the same setting: for `O=C(O)[C@H](Cc1ccccc1)NC(=O)[C@H](Cc1c[nH]cn1)NC(=O)[C@H](Cc1c[nH]cn1)NC(=O)[C@@H]1CCCN1` [PHHF, Pro-His-His-Phe] (H-PHHF-OH; N-terminus and C-terminus assumed) the value was above 10 mM.
Same read-out and setting: the value for `CC(C)C[C@H](NC(=O)[C@H](Cc1ccc(O)cc1)NC(=O)[C@@H]1CCCN1)C(=O)N[C@@H](CCCCN)C(=O)O` [PYLK, Pro-Tyr-Leu-Lys] (H-PYLK-OH; N-terminus and C-terminus assumed) was above 10 mM.
Take `N[C@@H](Cc1ccc(O)cc1)C(=O)N[C@@H](Cc1ccc(O)cc1)C(=O)N1CCC[C@H]1C(=O)O` [YYP, Tyr-Tyr-Pro] (H-Tyr-Tyr-Pro-OH; N-terminus and C-terminus assumed): in experiment [1], the midpoint of inhibition, the IC50, lay at 1.76 ± 0.025 mM. Besides, the Ki in experiment [2] (YYP 0.5 mM) came to 0.245 mM; in experiment [2] (YYP 1 mM), 0.283 mM; in experiment [2] (YYP 2 mM), 0.428 mM. In addition, in experiment [2] (Lineweaver–Burk analysis), the “Type of tyrosinase inhibition” value was “mixture of noncompetitive and competitive types; also recorded: mixed type of inhibition; also recorded: hybrid”. Also, the “Maximum Reaction Speed Vmax (A475/min)” value in experiment [2] (YYP 0.5 mM) was found to be 0.0212 A475/min; in experiment [2] (YYP 1 mM), 0.0206 A475/min; in experiment [2] (YYP 2 mM), 0.0192 A475/min. Moreover, the “Inhibition Constant KIS” value in experiment [2] (YYP 0.5 mM) is listed as 8.3833 mM; in experiment [2] (YYP 1 mM), 11.4139 mM; in experiment [2] (YYP 2 mM), 12.1276 mM. Also, in experiment [2] (enzyme concentration vs. initial rate at different YYP concentrations), the “Reversibility of tyrosinase inhibition” value is reported as “reversible”.
Molecule Pro-Tyr-Leu-Lys (PYLK) (peptide) returned a Tyrosinase Inhibitory Activity (IC50, mM); oxidation of L-tyrosine by mushroom tyrosinase read at 475 nm in experiment [3] above 10 mM.
For Tyr-Tyr-Pro (YYP) (peptide), the results for the KIS (inhibitor from the enzyme-inhibitor-substrate complex) in experiment [4], in experiment [5] and in experiment [6] were 11.4 mM, 12.1 mM and 8.38 mM, respectively. The Tyrosinase Inhibitory Activity (IC50, mM); oxidation of L-tyrosine by mushroom tyrosinase read at 475 nm in experiment [3] was found to be 1.76 mM.

B1: Phe-Arg-Val-Lys (FRVK) (peptide)
peptide: FRVK
As for B1, the Tyrosinase Inhibitory Activity (IC50, mM); oxidation of L-tyrosine by mushroom tyrosinase read at 475 nm in experiment [3] was 5.87 mM.

B2: Pro-His-His-Phe (PHHF) (peptide)
peptide: PHHF
As for B2, the Tyrosinase Inhibitory Activity (IC50, mM); oxidation of L-tyrosine by mushroom tyrosinase read at 475 nm in experiment [3] was above 10 mM.

As a reminder, the IC50 is the point on the concentration scale where inhibition reaches its midpoint. By Ki is commonly meant the dissociation constant of the complex between target and ligand, obtained from inhibition or displacement. Low readings indicate tighter binding, high ones weaker binding.

The record behind these values is publication PMC10649063, “Optimization of a Novel Tyrosinase Inhibitory Peptide from Atrina pectinata Mantle and Its Molecular Inhibitory Mechanism” (Foods, 2023).
